Patent US8486995B2, “Acaricidal active substance combinations” (priority 2007, dated 2013)
In brackets after ≈: the same amount, converted by molar mass.

Experiments:
Format in all cases: in vivo
[1] = tested on: citrus spider mite (Panonychus citri); assay: Panonychus citri test (sprayed citrus plants); details: single active substance; for LC 50 in mg/l after 1d: Citrus limon; for LC50: Panonychus citri, in Citrus x limon, 24 h, after 1 d, read-out: LC 50 in mg/l after 1d
Experimental: (§1) Solvent: 7 parts by weight of dimethylformamide
(§2) Emulsifier: 2 parts by weight of alkylaryl polyglycol ether
(§3) To prepare a suitable preparation of active substance, 1 part by weight of active substance is mixed with the stated amounts of solvent and emulsifier, and the concentrate is diluted with water to the desired concentrations.
Citrus plants (Citrus limon) which are infected with a mixed population of the citrus spider mite (Panonychus citri) are sprayed with the active substance preparation at the desired concentration.
(§4) After the desired period of time, the destruction is determined in %. In this context, 100% means that all spider mites have been destroyed; 0% means that no spider mites have been destroyed.

[2] = tested on: fruit tree spider mite (Panonychus ulmi); assay: Panonychus ulmi test (sprayed plum cuttings); details: single active substance
Experimental: as §1, §2, §3
Plum cuttings (Prunus domestica) which are infected with a mixed population of the fruit tree spider mite (Panonychus ulmi) are sprayed with the active substance preparation at the desired concentration.
as §4

[3] = tested on: common spider mite (Tetranychus urticae); assay: Tetranychus urticae test (OP-resistant; sprayed cucumbers); details: single active substance
Experimental: Tetranychus urticae Test (OP-Resistant)
as §1, §2, §3
Cucumbers (Cucumis sativus) which are severely infected with the common spider mite (Tetranychus urticae) are sprayed with the active substance preparation at the desired concentration.
as §4

Row | Molecule | LC 50 in mg/l after 1d [1] [mg/L] | Destruction in % after 2d ([2]; 0.8 ppm, plum cuttings) [%] | Destruction in % after 2d ([2]; 4 ppm) [%] | Destruction in % after 6d ([3]; 0.032 ppm) [%] | Destruction in % after 6d ([3]; 0.16 ppm, cucumbers) [%] | LC50 [1] [mg/L] | Destruction in % after 2d ([2]; 0.16 ppm) [%]
1 | CC(C)(C)c1ccc(CSc2cnn(C(C)(C)C)c(=O)c2Cl)cc1 [Pyridaben (IV), pyridaben] | 31.41 (≈ 86.1 µM) |  |  |  |  |  | 
2 | CCC(C)(C)C(=O)OC1=C(c2ccc(Cl)cc2Cl)C(=O)OC12CCCCC2 [Spirodiclofen (I), Spirodiclofen] |  | 5 | 15 | 15 | 25 | 12.3 (≈ 29.8 µM) | 
3 | CC(C)(C)c1ccc(CCOc2ncnc3ccccc23)cc1 [Fenazaquin (V), fenazaquin] |  | 0 |  |  | 0 | 10.2 (≈ 33.3 µM) | 
4 | abamectin [Abamectin (VI)] | 1.0054 |  |  |  |  |  | 0
5 | COc1ccc(-c2ccccc2)cc1NNC(=O)OC(C)C [Bifenazate (II), bifenazate] |  | 10 |  |  | 15 |  | 
